From patent publication US8202997B2, “Compositions and methods for treating or preventing hypoxic or ischemic injury” (Ikaria, Inc., priority 2008, dated 2012) come the findings set out here.

In experiment [1] the test system is hepatic ischemia-reperfusion (I/R) injury. Briefly: Murine hepatic ischemia-reperfusion injury model. Particulars: for serum liver transaminase (ALT) levels: C57-BL6/J mice, after five hours reperfusion, compared to vehicle. Type of experiment: in vivo, mice. The procedure:
The ability of compound (3-1) to provide cytoprotective benefit in a model of hepatic ischemia-reperfusion (I/R) injury was tested in mice.
The mice used in these studies were C57-BL6/J mice, 8-10 weeks, (Jackson Laboratory, Bar Harbor, Me.). Food and water were provided ad libitum. Test animals were allowed to acclimate in a temperature and humidity controlled environment prior to the commencement of experimental procedures.
Mice were anesthetized with ketamine and xylazine and maintained with warming during surgical procedures to induce hepatic ischemia-reperfusion (UR) injury. Specifically, a midline incision was performed to expose the liver, and heparin was injected to prevent blood clotting. Both the hepatic artery and portal vein were clamped with microaneurysm clamps to render the left lateral and median lobes of the liver ischemic. Ischemia proceeded for 45 minutes, with the liver maintained in the peritoneal cavity in its original location and kept moist with gauze soaked with 0.9% normal saline. Control mice received sham surgeries, although hepatic blood flow was not reduced with a microaneurysm clamp. At the end of 45 minutes, microaneurysm clamps were removed. Serum liver transaminase levels (ALT) were tested after five hours of hepatic reperfusion using spectrophotometry and commercially available reagents (Sigma-Aldrich).
Murine hepatic ischemia-reperfusion injury test animals were randomized to four groups. Group 1: vehicle (EtOH/PEG300+0.1% citric acid) treated; Group 2: treatment with 7 mg/kg Compound (3-1); Group 3: treatment with 15.0 mg/kg Compound (3-1). […] ALT levels were reduced in the two treatment groups (7.0 mg/kg, and 15.0 mg/kg), compared to vehicle.

Experiment [2] concerns myocardial ischemia-reperfusion (I/R) injury. The experiment is described as follows: Murine myocardial ischemia reperfusion model. Type of experiment: in vivo, mice. The method, then:
The ability of compound (3-1) to provide cardioprotective benefits in a myocardial ischemia-reperfusion (I/R) injury model was tested in mice. In this study, it is shown that bolus administration of compound (3-1) into the left ventricular cavity post-ischemia and five minutes prior to a 24-hour reperfusion period reduced myocardial ischemia and reduced myocardial infarct size as a percentage of risk area. The mice used in these studies were C57-BL6/J mice, 8-10 weeks, (Jackson Laboratory, Bar Harbor, Me.). Food and water were provided ad libitum. Test animals were allowed to acclimate in a temperature and humidity controlled environment prior to the commencement of experimental procedures.
Mice were anesthetized with ketamine and pentobarbital sodium and maintained with warming during surgical procedures to induce myocardial ischemia-reperfusion (I/R) injury. […]
After 24 hours of reperfusion, post-ischemia, mice were anesthetized, intubated, and connected to a rodent ventilator. […] Each of the five myocardial slices (1-mm) were weighed, areas of infarction, area at risk (AAR), and non-ischemic left ventricle were assessed with computer-assisted planimetry by an observer blinded to sample identity. […]
Data were analyzed by 2-way ANOVA with post-hoc Bonferroni analysis using StatView software version 5.0 (SAS Institute). […]

With `c1ccc(CSSSSCc2ccccc2)cc1` [Compound 3-1, 1,4-dibenzyltetrasulfane], the “serum liver transaminase (ALT) levels” value was “statistically significant reduction” in experiment [1] (7 mg/kg intraperitoneal bolus post-ischemia (45 min)) and “reduced” in experiment [1] (15.0 mg/kg intraperitoneal bolus post-ischemia (45 min)). In addition, in experiment [1] (mice, intraperitoneal bolus post-hepatic ischemia, immediately prior to five hour reperfusion, dose not given), the “liver transaminase alanine aminotransferase (ALT) measured in serum” value is on record as “decreased”. Further, the “myocardial infarct size as a percentage of risk area” value in experiment [2] (C57-BL6/J mice, 7 mg/kg bolus into left ventricular cavity after 30 minutes ischemia, five minutes prior to 24 hour reperfusion) was “reduced”. In addition, in experiment [2] (mice, bolus into left ventricular cavity post-ischemia, five minutes prior to 24-hour reperfusion), the myocardial ischemia entry was “reduced”.
